Laboratory results reported in the supplement of paper PMC11208160.

Test: recombinant UMI read abundance after kanamycin selection (control-corrected) (log10(CPM+1)); higher = more efficient recombination; extreme values may be limits of the assay; sequences stand for … in AGTGCAGAGAAAATCGGCCAGTTTTCTCTGCCTGCAGTCCGCATGCCGTGGGACCCCTTGGGTTCTAACCTGTTGCCTAGATTTATGCAGCGGACTGCCTTTCTCCCAAAGTGATAAACCGG…AGGTTGGTTTCACT; site = the 11-nt donor
Summary of the method: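 Sequenced counts of recombinant UMIs were turned into CPM, averaged across replicates and scaled with control-derived factors. The reported figure is log10(CPM+1). Those UMIs, each 12 nt long, tagged donor and donor-binding-loop pairs on a plasmid with a promoterless kanamycin gene, screened as a pool in Escherichia coli with IPTG (0.07 mM) plus kanamycin or without selection.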
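Also: IS621 bridge recombinase in Escherichia coli cells against a fixed T5 target plasmid.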

Row | Sequence | recombinant UMI read abundance (log10)
1 | GTTTGGACATGGACCGGTTTTCCCGGTAATCCGTATTTGAC (site GTTTGGACTGT) | 1.91
2 | TAAAGCCCATGGACCGGTTTTCCCGGTAATCCGTATTTGTA (site TAAAGACCTTA) | 0.00168
3 | TAAAGCCCATGGACCGGTTTTCCCGGTAATCCGTATTTGTA (site TAAAGCCCTTA) | 1.58
4 | TAAAGCCCATGGACCGGTTTTCCCGGTAATCCGTATTTGTA (site TAAAGGCCTTA) | 0.00691
5 | TAAAGCCCATGGACCGGTTTTCCCGGTAATCCGTATTTGTA (site TAAAGTCCTTA) | 0.0272
6 | TAAAGGGCATGGACCGGTTTTCCCGGTAATCCGTATTTGTG (site TAAAGGGCTCA) | 1.23
7 | TAAAGTACATGGACCGGTTTTCCCGGTAATCCGTATTTGTA (site TAAAGTACTTA) | 1.41
8 | TAAAGTACATGGACCGGTTTTCCCGGTAATCCGTATTTGTA (site TAAAGTCCTTA) | 0.00305
9 | TAAAGTACATGGACCGGTTTTCCCGGTAATCCGTATTTGTA (site TAAAGTGCTTA) | 0.204
10 | TAAAGTACATGGACCGGTTTTCCCGGTAATCCGTATTTGTA (site TAAAGTTCTTA) | 0
11 | TAAAGTCCATGGACCGGTTTTCCCGGTAATCCGTATTTGAA (site TAAAGTCCTTA) | 0.00424
12 | TAAAGTCCATGGACCGGTTTTCCCGGTAATCCGTATTTGAA (site TAAAGTCCTTC) | 0.144
13 | TAAAGTCCATGGACCGGTTTTCCCGGTAATCCGTATTTGAA (site TAAAGTCCTTG) | 0
14 | TAAAGTCCATGGACCGGTTTTCCCGGTAATCCGTATTTGAA (site TAAAGTCCTTT) | 0.775
15 | TAACCCACATGGACCGGTTTTCCCGGTAATCCGTATTTGTG (site TAACCCACTCA) | 0.0264
16 | TAACCTTCATGGACCGGTTTTCCCGGTAATCCGTATTTGGT (site TAACCTTCTAC) | 0.00557
17 | TAACCTTCATGGACCGGTTTTCCCGGTAATCCGTATTTGGT (site TACCCTTCTAC) | 0.00501
18 | TAACCTTCATGGACCGGTTTTCCCGGTAATCCGTATTTGGT (site TAGCCTTCTAC) | 0.244
19 | TAACCTTCATGGACCGGTTTTCCCGGTAATCCGTATTTGGT (site TATCCTTCTAC) | 0

Row | Sequence | recombinant UMI read abundance (log10)
20 | TAACTAGCATGGACCGGTTTTCCCGGTAATCCGTATTTGCG (site TAACTAGCTCG) | 0
21 | TAACTCCCATGGACCGGTTTTCCCGGTAATCCGTATTTGGC (site TAACTCCCTGC) | 0.847
22 | TAACTTCCATGGACCGGTTTTCCCGGTAATCCGTATTTGCA (site TAACTTCCTTG) | 0.949
23 | TAAGAAACATGGACCGGTTTTCCCGGTAATCCGTATTTGCT (site TAAGAAACTAG) | 2.12
24 | TAAGACCCATGGACCGGTTTTCCCGGTAATCCGTATTTGTT (site TAAGACCCTAA) | 0.806
25 | TAAGCAGCATGGACCGGTTTTCCCGGTAATCCGTATTTGCT (site AAAGCAGCTAG) | 0.00963
26 | TAAGCAGCATGGACCGGTTTTCCCGGTAATCCGTATTTGCT (site CAAGCAGCTAG) | 0.371
27 | TAAGCAGCATGGACCGGTTTTCCCGGTAATCCGTATTTGCT (site GAAGCAGCTAG) | 0.00441
28 | TAAGCAGCATGGACCGGTTTTCCCGGTAATCCGTATTTGCT (site TAAGCAGCTAG) | 2.32
29 | TAAGGTCCATGGACCGGTTTTCCCGGTAATCCGTATTTGTA (site TAAAGTCCTTA) | 0.294
30 | TAAGGTCCATGGACCGGTTTTCCCGGTAATCCGTATTTGTA (site TAACGTCCTTA) | 0.0087
31 | TAAGGTCCATGGACCGGTTTTCCCGGTAATCCGTATTTGTA (site TAAGGTCCTTA) | 2.08
32 | TAAGGTCCATGGACCGGTTTTCCCGGTAATCCGTATTTGTA (site TAATGTCCTTA) | 0.00238
33 | TAAGGTGCATGGACCGGTTTTCCCGGTAATCCGTATTTGTA (site TAAGGTGCTTA) | 2.58
34 | TAAGTCACATGGACCGGTTTTCCCGGTAATCCGTATTTGGG (site AAAGTCACTCC) | 0.0244
35 | TAAGTCACATGGACCGGTTTTCCCGGTAATCCGTATTTGGG (site CAAGTCACTCC) | 0.0119
36 | TAAGTCACATGGACCGGTTTTCCCGGTAATCCGTATTTGGG (site GAAGTCACTCC) | 0.00751
37 | TAAGTCACATGGACCGGTTTTCCCGGTAATCCGTATTTGGG (site TAAGTCACTCC) | 0.00997
38 | TAAGTGCCATGGACCGGTTTTCCCGGTAATCCGTATTTGAC (site TAAGTGCCTGT) | 0.999

Row | Sequence | recombinant UMI read abundance (log10)
39 | TAATATCCATGGACCGGTTTTCCCGGTAATCCGTATTTGTC (site TAATATCCTGA) | 0.252
40 | TAATGAGCATGGACCGGTTTTCCCGGTAATCCGTATTTGGC (site TAATGAGCTAC) | 0.253
41 | TAATGAGCATGGACCGGTTTTCCCGGTAATCCGTATTTGGC (site TAATGAGCTCC) | 0.0259
42 | TAATGAGCATGGACCGGTTTTCCCGGTAATCCGTATTTGGC (site TAATGAGCTGC) | 2.42
43 | TAATGAGCATGGACCGGTTTTCCCGGTAATCCGTATTTGGC (site TAATGAGCTTC) | 0.585
44 | TAATGGCCATGGACCGGTTTTCCCGGTAATCCGTATTTGAT (site TAATGGCCTAT) | 0.00507
45 | TACAAACCATGGACCGGTTTTCCCGGTAATCCGTATTTGGT (site AACAAACCTAC) | 0
46 | TACAAACCATGGACCGGTTTTCCCGGTAATCCGTATTTGGT (site CACAAACCTAC) | 0.0034
47 | TACAAACCATGGACCGGTTTTCCCGGTAATCCGTATTTGGT (site GACAAACCTAC) | 0
48 | TACAAACCATGGACCGGTTTTCCCGGTAATCCGTATTTGGT (site TACAAACCTAC) | 0.00495
49 | TACAATTCATGGACCGGTTTTCCCGGTAATCCGTATTTGCC (site TACAATTCTGG) | 0.00632
50 | TACAATTCATGGACCGGTTTTCCCGGTAATCCGTATTTGCC (site TCCAATTCTGG) | 0
51 | TACAATTCATGGACCGGTTTTCCCGGTAATCCGTATTTGCC (site TGCAATTCTGG) | 0.434
52 | TACAATTCATGGACCGGTTTTCCCGGTAATCCGTATTTGCC (site TTCAATTCTGG) | 0
53 | TACAGCGCATGGACCGGTTTTCCCGGTAATCCGTATTTGGC (site TACAGCGCTGC) | 2.37
54 | TACAGTACATGGACCGGTTTTCCCGGTAATCCGTATTTGGT (site TACAGTACTAC) | 0.439
55 | TACAGTCCATGGACCGGTTTTCCCGGTAATCCGTATTTGCG (site TACAGTCCTCG) | 0.004
56 | TACATAGCATGGACCGGTTTTCCCGGTAATCCGTATTTGGG (site TACATAGCTCC) | 0.013
57 | TACATGGCATGGACCGGTTTTCCCGGTAATCCGTATTTGCT (site TACATGGCTAG) | 1.32
